Key:
[1] = system: Brca1 deficient (Cre10) ES cells; experiment: Clonogenic survival, continuous exposure, Brca1 deficient ES cells; assay type: cell-based
Description: (§1) To assess the stand alone activity of a PARP inhibitor on Braca 1 and 2 deficient cells the following protocols were used.
(§2) Compound (4) was dissolved in DMSO at 10 mM and stored at −20° C. in the dark.
(§3) VC8 cells and the mouse Brca2 BAC complemented derivatives were as described in M. Kraakman-van der Zwet, et al., Mol Cell Biol 22, 669-79 (2002)). ES cells defective in Brca2 function have been described previously (Tutt, et al., EMBO Rep 3, 255-60 (2002)). The construction of ES cells defective in Brca1 will be described elsewhere but have previously been validated (Foray, et al., Embo J, 22, 2860-71 (2003)).
(§4) For measurement of cellular sensitivity to a PARP inhibitor (compound 4), cell cultures in exponential growth were trypsinised and seeded at various densities in 6-well plates onto Mitomycin C inactivated mouse embryonic fibroblasts and where appropriate treated with the test compound after 18 hours. For continuous exposure, cells were re-fed every 4 days with fresh medium and inhibitor. After 10-14 days, cells were washed with PBS, fixed in methanol and stained with crystal violet. Colonies containing greater than approximately 50 cells were counted. Experiments were performed at least three times in triplicate.

[2] = system: Brca1 wild type (11CO) ES cells; experiment: Clonogenic survival, continuous exposure, Brca1 wild type ES cells; assay type: cell-based; conditions: matched wild type cells (Brca1), clonogenic assay, continuous exposure (FIG. 1A)
Description: as §1, §2, §3, §4

[3] = system: Brca2 deficient (Cre24) ES cells; experiment: Clonogenic survival, continuous exposure, Brca2 deficient ES cells; assay type: cell-based; conditions: ratio of SF50 wild type / Brca2 deficient ES cells
Description: as §1, §2, §3, §4

[4] = system: Brca2 wild type (D3) ES cells; experiment: Clonogenic survival, continuous exposure, Brca2 wild type ES cells; assay type: cell-based; conditions: matched wild type cells (Brca2), clonogenic assay, continuous exposure (FIG. 1B)
Description: as §1, §2, §3, §4

[5] = system: Chinese hamster ovary cells deficient in Brca2 (VC8); experiment: Clonogenic survival, continuous exposure, Brca2 deficient VC8 cells; assay type: cell-based
[6] = system: Brca2-complemented derivative (VC8-BAC); experiment: Clonogenic survival, continuous exposure, Brca2-complemented VC8-BAC cells; assay type: cell-based, Chinese hamster; conditions: matched control VC8-BAC, clonogenic assay (FIG. 2)

## O=C(c1cc(Cc2n[nH]c(=O)c3ccccc23)ccc1F)N1CCCNCC1 [compound 4, 4-[3-([1,4]diazepane-1-carbonyl)-4-fluorobenzyl]-2H-phthalazin-1-one]
[1]; cells deficient in Brca1, clonogenic assay, continuous exposure (FIG. 1A)
  SF50 (dosage at which 50% of cells survived): 15 nM
[1]; ratio of SF50 wild type / Brca1 deficient
  fold enhanced sensitivity of Brca1 mutant cells compared to wild type cells: 467 fold
[2]
  SF50 (dosage at which 50% of cells survived): 7 µM
[3]
  fold enhanced sensitivity of Brca2 mutant cells compared to wild type cells: 1,500 fold
[4]
  SF50 (dosage at which 50% of cells survived): 18 µM
[5]; Brca2 deficient VC8 line, clonogenic assay (FIG. 2)
  SF50 (dosage at which 50% of cells survived): 50 nM
[5]; ratio of SF50 VC8-BAC / VC8
  fold enhanced sensitivity of Brca2 mutant cells compared to wild type cells: 600 fold
[6]
  SF50 (dosage at which 50% of cells survived): 30 µM
